Data from patent US20090233966A1, “Analogues of the Azinomycins as Anti-Tumour Agents and as Prodrugs” (School of Pharmacy, University of London, priority 2005, published 2009).
Where two headings read alike, the source gives them in different places.

Tests used:
NCl 60 cell panel = assay: NCI 60 cell line panel antitumour activity (whole panel); type: cell-based, human; conditions: wide range of human tumour cell lines
Text: Examples 6 and 7 make use of the NCl 60 cell panel. This is an in vitro cell line screening project providing direct support to the National Cancer Institute's USA Developmental Therapeutic Programme for anti cancer discovery. The methodolgy for the cell line's operation is described by Boyd et al in Drug Development Research 1995, 34, 91-109.

[1] = system: HoeR (Hoechst415 resistant version of U2-OS); assay: Cytotoxicity in HoeR cell line; type: cell-based, human; conditions: for IC50: read-out: IC50 (nM) of compound; for cytotoxicity (in words): initial cytotoxicity studies
Text: (§1) Initial cytotoxicity studies were in the performed U2-OS and HoeR cell lines. The U2-OS is a human osteosarcoma cell line and HoeR is a DNA minor groove binder-resistant variant of this. Both are available from the American Type Culture Collection (ATCC), Dr. Raymon H. 10801 University Boulevard, Manassas, Va., 20110-2209, USA.

[2] = system: U2-OS human osteosarcoma cell line; assay: Cytotoxicity in U2-OS cell line; type: cell-based; conditions: for IC50: read-out: IC50 (nM) of compound; for cytotoxicity (in words): initial cytotoxicity studies
Text: as §1

[3] = system: wild type CHO cells (absent in CYP3A4); assay: Cytotoxicity on wild type CHO cells; type: cell-based; conditions: FIG. 2(b)
CYP3A4 CHO cells = assay: Cytotoxicity on CHO cells transfected with CYP3A4; type: cell-based; conditions: FIG. 2(b)

Structure (SMILES)	antitumour activity in the NCl 60 cell line panel (in words) (NCl 60 cell panel)	IC50 ([1]; Homo sapiens, U2OS)	cytotoxicity (in words) [1]	IC50 ([2]; Homo sapiens, U2OS)	cytotoxicity (in words) [2]	IC50 [1]	IC50 [2]	cytotoxicity (in words) [3]	cytotoxicity (in words) (CYP3A4 CHO cells)
COc1cc(C(=O)O[C@H](C(=O)NCCN2CCCC(Cl)C2)C2(C)CO2)c2cccc(C)c2c1 (some centres unmarked)	excellent anti-tumour activity								
C=C(C)[C@@H](OC(=O)c1cc(OC)cc2c(C)cccc12)C(N)=O [(2R)-2]		> 10000 nM	not cytotoxic	> 10000 nM	not cytotoxic				
COc1cc(C(=O)OC(C(N)=O)[C@]2(C)CO2)c2ccccc2c1 (stereo partly drawn) [(2R, 3R)-1]			good activity		good activity	40 nM	40 nM		
COc1cc(C(=O)OC(C(N)=O)[C@]2(C)CO2)c2ccccc2c1 (stereo partly drawn) [(2R, 3S)-1]			good activity		good activity	45 nM	40 nM		
COc1cc(C(=O)OC(C(N)=O)[C@]2(C)CO2)c2ccccc2c1 (stereo partly drawn) [(2S, 3R)-1]			good activity		good activity	121 nM	120 nM		
COc1cc(C(=O)OC(C(N)=O)[C@]2(C)CO2)c2ccccc2c1 (stereo partly drawn) [(2S, 3S)-1]			good activity		good activity	14 nM	15 nM	high cytotoxicity	high cytotoxicity
